In brackets after ≈: the same amount, converted by molar mass.
Tested on: M17-SYNwt cells
Assay: α-synuclein cytotoxicity assay (LDH leakage from paraquat-treated α-synuclein over-expressing neuroblastoma cells)
Type: cell-based, human
Conditions: paraquat 32 mM, 40 hours, LDH release; for %I: percent inhibition of synuclein cytotoxicity at most effective concentration of test compound, relative to untreated paraquat cells; for EC50: Homo sapiens, Neuroblastoma cell, 10 point curves in duplicate
Method in brief: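 M17 neuroblastoma cells over-expressing wild-type α-synuclein were challenged with paraquat, and cytotoxicity was read as LDH release. Protection was expressed as percent reduction of paraquat-induced LDH release relative to untreated paraquat cells and control cells. Actives were retested in 10-point duplicate dose responses.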

Compound	%I	EC50
COc1cccc(Cc2nsc(N3CCN(C(=O)c4ccccc4)C(C)C3)n2)c1 (stereo not shown) [Compound 173, 1-benzoyl-4-[3-(3-methoxybenzyl)-1,2,4-thiadiazol-5-yl]-2-methylpiperazine]	85%	
COc1cccc(Cc2nsc(N3CCN(C(=O)c4ccc(Cl)cc4)C(C)C3)n2)c1 (stereo not shown) [Compound 174, 1-(4-chlorobenzoyl)-4-[3-(3-methoxybenzyl)-1,2,4-thiadiazol-5-yl]-2-methylpiperazine]	83%	
Cc1ccc(Cc2nsc(N3CCN(C(=O)c4ccccc4F)CC3)n2)cc1 [Compound 175, 1-(2-fluorobenzoyl)-4-[3-(4-methylbenzyl)-1,2,4-thiadiazol-5-yl]piperazine]	78%	
CCCCCCc1ccc(C(=O)N2CCN(c3nc(Cc4ccc(C)cc4)ns3)CC2)cc1 [Compound 176, 1-(4-hexylbenzoyl)-4-[3-(4-methylbenzyl)-1,2,4-thiadiazol-5-yl]piperazine]	77%	
CC1CN(c2nc(Cc3ccc(F)cc3)ns2)CCN1C(=O)c1ccc([N+](=O)[O-])cc1Cl (stereo not shown) [Compound 177, 1-(2-chloro-4-nitrobenzoyl)-4-[3-(4-fluorobenzyl)-1,2,4-thiadiazol-5-yl]-2-methylpiperazine]	77%	
CC1CN(c2nc(Cc3ccc(F)cc3)ns2)CCN1C(=O)c1ccc2c(c1)OCO2 (stereo not shown) [Compound 178, 1-(1,3-benzodioxol-5-ylcarbonyl)-4-[3-(4-fluorobenzyl)-1,2,4-thiadiazol-5-yl]-2-methylpiperazine]	68%	
CC1CN(c2nc(Cc3ccc(F)cc3)ns2)CCN1C(=O)c1cccc(F)c1 (stereo not shown) [Compound 179, 1-(3-fluorobenzoyl)-4-[3-(4-fluorobenzyl)-1,2,4-thiadiazol-5-yl]-2-methylpiperazine]	68%	
CC(C)(C)c1ccc(C(=O)N2CCN(c3nc(Cc4ccc(F)cc4)ns3)CC2)cc1 [Compound 180, 1-(4-tert-butylbenzoyl)-4-[3-(4-fluorobenzyl)-1,2,4-thiadiazol-5-yl]piperazine]	62%	
O=C(c1ccccc1)N1CCN(c2nc(Cc3ccc(F)cc3)ns2)CC1 [Compound 181, 1-benzoyl-4-[3-(4-fluorobenzyl)-1,2,4-thiadiazol-5-yl]piperazine]	60%	
CCCCc1ccc(C(=O)N2CCN(c3nc(Cc4ccc(C)cc4)ns3)CC2)cc1 [Compound 182, 1-(4-butylbenzoyl)-4-[3-(4-methylbenzyl)-1,2,4-thiadiazol-5-yl]piperazine]	57%	
Cc1ccc(Cc2nsc(N3CCN(C(=O)c4ccc(C(C)(C)C)cc4)CC3)n2)cc1 [Compound 183, 1-(4-tert-butylbenzoyl)-4-[3-(4-methylbenzyl)-1,2,4-thiadiazol-5-yl]piperazine]	52%	
CC1CN(c2nc(Cc3ccc(F)cc3)ns2)CCN1C(=O)c1ccc([N+](=O)[O-])cc1 (stereo not shown) [Compound 184, 1-(4-nitrobenzoyl)-4-[3-(4-fluorobenzyl)-1,2,4-thiadiazol-5-yl]-2-methylpiperazine]	52%	
Cc1ccccc1N1CCN(c2nc(Cc3ccc(F)cc3)ns2)CC1 [Compound 185, 1-(2-methylphenyl)-4-[3-(4-fluorobenzyl)-1,2,4-thiadiazol-5-yl]piperazine]	114%	0.38 µg/mL (≈ 1.03 µM)
CCOc1ccccc1N1CCN(c2nc(Cc3ccc(F)cc3)ns2)CC1 [Compound 186, 1-(2-ethoxyphenyl)-4-[3-(4-fluorobenzyl)-1,2,4-thiadiazol-5-yl]piperazine]	94%	2.05 µg/mL (≈ 5.14 µM)
Fc1ccc(Cc2nsc(N3CCN(c4ccccc4F)CC3)n2)cc1 [Compound 187, 1-(2-fluorophenyl)-4-[3-(4-fluorobenzyl)-1,2,4-thiadiazol-5-yl]piperazine]	83%	2.81 µg/mL (≈ 7.54 µM)
Fc1ccc(Cc2nsc(N3CCN(c4cccc(C(F)(F)F)c4)CC3)n2)cc1 [Compound 188, 1-(3-trifluoromethylphenyl)-4-[3-(4-fluorobenzyl)-1,2,4-thiadiazol-5-yl]piperazine]	96%	
O=C(c1ccc(Cl)cc1)N1CCCN(c2nc(Cc3ccc(F)cc3)ns2)CC1 [Compound 189, 1-(4-chlorobenzoyl)-4-[3-(4-fluorobenzyl)-1,2,4-thiadiazol-5-yl]-1,4-diazepane]	85%	0.17 µg/mL (≈ 0.394 µM)
Cc1ccc(C(=O)N2CCCN(c3nc(Cc4ccc(F)cc4)ns3)CC2)cc1 [Compound 190, 1-(4-methylbenzoyl)-4-[3-(4-fluorobenzyt)-1,2,4-thiadiazol-5-yl]-1,4-diazepane]	87%	2.77 µg/mL (≈ 6.75 µM)
O=C(c1ccc2c(c1)OCO2)N1CCCN(c2nc(Cc3ccc(F)cc3)ns2)CC1 [Compound 191, 1-(1,3-benzodioxol-5-ylcarbonyl)-4-[3-(4-fluorobenzyl)-1,2,4-thiadiazol-5-yl]-1,4-diazepane]	63%	
COc1ccc(S(=O)(=O)N2CCN(c3nc(Cc4cccc(F)c4)ns3)CC2)cc1 [Compound 193, 1-[4-methoxyphenylsulfonyl]-4-[3-(3-fluoro-benzyl)-1,2,4-thiadiazol-5-yl]piperazine]	68%	0.0048 µg/mL (≈ 0.0107 µM)
COc1ccc(S(=O)(=O)N2CCN(c3nc(Cc4ccccc4F)ns3)CC2)cc1 [Compound 194, 1-[4-methoxyphenylsulfonyl]-4-[3-(2-fluoro-benzyl)-1,2,4-thiadiazol-5-yl]piperazine]	102%	0.0012 µg/mL (≈ 0.00268 µM)
COc1ccccc1S(=O)(=O)N1CCN(c2nc(Cc3ccc(F)cc3)ns2)CC1 [Compound 195, 1-[2-methoxyphenylsulfonyl]-4-[3-(4-fluoro-benzyl)-1,2,4-thiadiazol-5-yl]piperazine]	99%	0.025 µg/mL (≈ 0.0557 µM)
CCOc1ccc(S(=O)(=O)N2CCN(c3nc(Cc4ccc(F)cc4)ns3)CC2)cc1 [Compound 196, 1-[4-ethoxyphenylsulfonyl]-4-[3-(4-fluoro-benzyl)-1,2,4-thiadiazol-5-yl]piperazine]	42%	0.0081 µg/mL (≈ 0.0175 µM)
CCc1ccc(S(=O)(=O)N2CCN(c3nc(Cc4ccc(F)cc4)ns3)CC2)cc1 [Compound 197, 1-[4-ethylphenylsulfonyl]-4-[3-(4-fluoro-benzyl)-1,2,4-thiadiazol-5-yl]piperazine]	84%	0.239 µg/mL (≈ 0.535 µM)
O=S(=O)(c1ccccc1)N1CCN(c2nc(Cc3ccc(F)cc3)ns2)CC1 [Compound 198, 1-phenylsulfonyl-4-[3-(4-fluoro-benzyl)-1,2,4-thiadiazol-5-yl]piperazine]	25%	0.146 µg/mL (≈ 0.349 µM)
COc1ccc(S(=O)(=O)N2CCN(c3nc(Cc4ccccc4)ns3)CC2)cc1 [Compound 199, 1-[4-methoxyphenylsulfonyl]-4-[3-benzyl-1,2,4-thiadiazol-5-yl]piperazine]	38%	0.0016 µg/mL (≈ 0.00372 µM)
CCC(=O)Oc1ccc(S(=O)(=O)N2CCN(c3nc(Cc4ccc(F)cc4)ns3)CC2)cc1 [Compound 200, 1-(4-propionyloxy)benzene-sulfonyl-4-[3-(4-fluoro-benzyl)-1,2,4-thiadiazol-5-yl]piperazine]	80%	0.051 µg/mL (≈ 0.104 µM)
COc1ccc(S(=O)(=O)N2CCN(c3nc(Cc4cccc(C)c4)ns3)CC2)cc1 [Compound 201]	97%	0.0021 µg/mL (≈ 0.00472 µM)
COc1ccc(S(=O)(=O)N2CCN(c3nc(Cc4ccccc4C)ns3)CC2)cc1 [Compound 202]	63%	0.0075 µg/mL (≈ 0.0169 µM)
COc1ccc(S(=O)(=O)N2CCN(c3nc(Cc4ccccc4OC)ns3)CC2)cc1 [Compound 203]	61%	0.0062 µg/mL (≈ 0.0135 µM)

Source: patent publication EP1981504B1, “THIADIAZOLE DERIVATIVES FOR THE TREATMENT OF NEURO DEGENERATIVE DISEASES” (NV reMYND, priority 2006, dated 2007)
